Assay results reported in patent US20240408099A1, “COMBINATION […] OF KRAS G12D INHIBITORS WITH Pan ErbB FAMILY INHIBITORS” (MIRATI THERAPEUTICS, INC., priority 2021, published 2024).

What was measured:
Format in all cases: in vivo, nude/nude mice
Panc 02.03 = Panc 02.03 TGI-43 pancreatic cancer xenograft (Table 5), tumor volumes; settings: for Average Tumor Volumes: 12.5 mg/kg QD (once daily)
Experimental: (§1) Immunocompromised nude/nude mice are inoculated in the right hind flank with cells harboring a KRas G12D mutation. When tumor volumes reach between 200-400 mm^3 in size, the mice are divided into four to five groups of 5 mice each. The first group is administered vehicle only. […] The fourth or last groups are administered the single agent dose of the KRas G12D inhibitor using the twice daily schedule and/or the 2 sequential days followed by 5 days off schedule in combination with the single agent dose of one of the EGFR inhibitors. […] Tumor volumes are measured using a caliper every two-three days and tumor volumes are calculated by the formula: […].
20 to 30 nude/nude mice per study were inoculated in the right hind limb with 5×10^6 LS180 cells, AsPC-1 cells, GP2D cells, Panc 02.03 cells, SW1990 cells, or SNU-1033 cells. […]

SW1990 cells = test: SW1990 TGI MDS #200407-807 pancreatic cancer xenograft, tumor volumes; settings: for Average Tumor Volumes: 12.5 mg/kg QD once daily
Experimental: as §1
(§2) 20 to 30 nude/nude mice per study were inoculated in the right hind limb with 5×10^6 LS180 cells, AsPC-1 cells, GP2D cells, Panc 02.03 cells, SW1990 cells, or SNU-1033 cells.
Experimental Procedures. 30 nude/nude mice were inoculated with SW1990 cells in the right hind flank. When the tumors reached ˜300 mm^3 six treatment groups were established with five mice per group.

AsPC-1 cells = test: AsPC-1 TGI-42 pancreatic cancer xenograft, tumor volumes; settings: 12.5 mg/kg QD
Experimental: Immunocompromised nude/nude mice are inoculated in the right hind flank with cells harboring a KRas G12D mutation. When tumor volumes reach between 200-400 mm^3 in size, the mice are divided into four to five groups of 5 mice each. The first group is administered vehicle only. […] The fourth or last groups are administered the single agent dose of the KRas G12D inhibitor using the twice daily schedule and/or the 2 sequential days followed by 5 days off schedule in combination with the single agent dose of one of the EGFR inhibitors. The treatment period varies from cell line to cell line but typically is between 15-40 days. Tumor volumes are measured using a caliper every two-three days and tumor volumes are calculated by the formula: […].
as §2
Experimental Procedures. 30 nude/nude mice were inoculated with AsPC-1 cells in the right hind flank. When the tumors reached ˜300 mm^3 six treatment groups were established with five mice per group.

Compound: CN(C)C/C=C/C(=O)Nc1cc2c(Nc3ccc(F)c(Cl)c3)ncnc2cc1OC1CCOC1 (stereo not shown) [Afatinib, (E)-N-(4-((3-chloro-4-fluorophenyl)amino)-7-((tetrahydrofuran-3-yl)oxy)quinazolin-6-yl)-4-(dimethylamino)but-2-enamide, reference compound]
- Average Tumor Volumes (Panc 02.03; Study Day 1): 331.548 mm^3
- Average Tumor Volumes (Panc 02.03; Study Day 4): 361.83 mm^3
- Average Tumor Volumes (Panc 02.03; Study Day 8): 398.444 mm^3
- Average Tumor Volumes (Panc 02.03; Study Day 11): 470.498 mm^3
- Average Tumor Volumes (Panc 02.03; Study Day 15): 660.352 mm^3
- Average Tumor Volumes (Panc 02.03; Study Day 18): 784.04 mm^3
- Average Tumor Volumes (Panc 02.03; Study Day 22): 904.724 mm^3
- tumor growth inhibition (Panc 02.03; 12.5 mg/kg daily, single agent, Day 22): 27%
- tumor growth inhibition (SW1990 cells; 12.5 mg/kg QD daily, single agent, Day 23): 20%
- Average Tumor Volumes (SW1990 cells; Study Day 2): 455.54 mm^3
- Average Tumor Volumes (SW1990 cells; Study Day 6): 536.86 mm^3
- Average Tumor Volumes (SW1990 cells; Study Day 9): 624.98 mm^3
- Average Tumor Volumes (SW1990 cells; Study Day 13): 698.56 mm^3
- Average Tumor Volumes (SW1990 cells; Study Day 16): 778.74 mm^3
- Average Tumor Volumes (SW1990 cells; Study Day 20): 1141.575 mm^3
- Average Tumor Volumes (SW1990 cells; Study Day 23): 1293.5 mm^3
- Average Tumor Volumes (SW1990 cells; Study Day −1): 363.4 mm^3
- tumor growth inhibition (AsPC-1 cells; single agent, Day 34): 11%
- Average Tumor Volumes (AsPC-1 cells; Study Day 1): 328.208 mm^3
- Average Tumor Volumes (AsPC-1 cells; Study Day 6): 463.11 mm^3
- Average Tumor Volumes (AsPC-1 cells; Study Day 9): 641.776 mm^3
- Average Tumor Volumes (AsPC-1 cells; Study Day 13): 720.894 mm^3
- Average Tumor Volumes (AsPC-1 cells; Study Day 16): 768.716 mm^3
- Average Tumor Volumes (AsPC-1 cells; Study Day 20): 964.434 mm^3
- Average Tumor Volumes (AsPC-1 cells; Study Day 23): 1002.602 mm^3
- Average Tumor Volumes (AsPC-1 cells; Study Day 27): 1211.064 mm^3
- Average Tumor Volumes (AsPC-1 cells; Study Day 30): 1289.494 mm^3
- Average Tumor Volumes (AsPC-1 cells; Study Day 34): 1252.045 mm^3
